Source: US9956204B2, “Composition for exterminating scuticociliates in fish including mebendazole” (NATIONAL INSTITUTE OF FISHERIES SCIENCE, priority 2016, dated 2018)

Tests used:
scuticociliates [1] = assay: Scuticociliates extermination effect of candidate substances in MEM medium; format: cell-based; conditions: MEM medium
Protocol: CHSE-214 cell line into which scuticociliates were inoculated was cultured in advance. The CHSE-214 cell line was cultured in an incubator using an MEM medium at 22° C. Scuticociliates inoculated into the cell line proliferated for 3 days by which the number reaches to be capable of analyzing in vitro anti-scuticociliates effect. Scuticociliates that feed on the cell line and sufficiently grow were mixed with the candidate substance and the activity of scuticociliates was measured.
In order to analyze the antiparasitic activity of the above 19 types of candidate substances of scuticociliates extermination drugs, scuticociliates were cultured for 3 days, and 100 μl (1×10^5) was dispensed into each well of 96 wells. The candidate substances were diluted by each concentration and the final volume was dispensed into 100 μl. Thereafter, the two were mixed and finally made into 200 μl.

scuticociliates [2] = assay: Scuticociliates extermination effect of candidate substances in seawater medium; format: cell-based; conditions: seawater medium, 4 hour
Protocol: For this, scuticociliates were cultured in CHSE-214 cell line (using MEM medium), and then scuticociliates were collected and centrifuged with sterilized seawater or artificial seawater (20‰) to replace them with a seawater medium. Each of 100 μl (1×10^5) was dispensed into each well of 96 wells, followed by further culture for 30 minutes. The candidate substances diluted in seawater to have a volume of 100 μl per each concentration were mixed with scuticociliates to have the final volume of 200 μl and cultured for 4 hour.

SMILES	Survival or Death of scuticociliates (activity and shape, microscope) (scuticociliates [1]; Dosage 500 ppm)	Survival or Death of scuticociliates (activity and shape, microscope) (scuticociliates [1]; Dosage 700 ppm)	Survival or Death of scuticociliates (activity and shape, microscope) (scuticociliates [1]; Dosage 800 ppm)	Survival or Death of scuticociliates (activity and shape, microscope) (scuticociliates [1]; Dosage 900 ppm)	Survival or Death of scuticociliates (activity and shape, microscope) (scuticociliates [1]; Dosage 1000 ppm)	Survival or Death of scuticociliates (activity and shape, microscope) (scuticociliates [1]; Dosage 2000 ppm)	Survival or Death of scuticociliates (activity and shape, microscope) (scuticociliates [2]; Dosage 500 ppm)	Survival or Death of scuticociliates (activity and shape, microscope) (scuticociliates [2]; Dosage 1000 ppm)	Survival or Death of scuticociliates (activity and shape, microscope) (scuticociliates [2]; Dosage 1500 ppm)	Survival or Death of scuticociliates (activity and shape, microscope) (scuticociliates [1]; Dosage 1500 ppm)	Survival or Death of scuticociliates (activity and shape, microscope) (scuticociliates [1]; Dosage 2500 ppm)	Survival or Death of scuticociliates (activity and shape, microscope) (scuticociliates [1]; Dosage 3000 ppm)	Survival or Death of scuticociliates (activity and shape, microscope) (scuticociliates [1]; Dosage 3500 ppm)	Survival or Death of scuticociliates (activity and shape, microscope) (scuticociliates [1]; Dosage 4000 ppm)	Survival or Death of scuticociliates (activity and shape, microscope) (scuticociliates [2]; Dosage 2000 ppm)	Survival or Death of scuticociliates (activity and shape, microscope) (scuticociliates [2]; Dosage 2500 ppm)	Survival or Death of scuticociliates (activity and shape, microscope) (scuticociliates [2]; Dosage 3000 ppm)	Survival or Death of scuticociliates (activity and shape, microscope) (scuticociliates [2]; Dosage 3500 ppm)	Survival or Death of scuticociliates (activity and shape, microscope) (scuticociliates [2]; Dosage 4000 ppm)	other results
CC1(C)[C@H](C(=O)O[C@H](C#N)c2cccc(Oc3ccccc3)c2)[C@@H]1C=C(Br)Br [Deltamethrin]	Survival	Survival	Survival	Survival	Δ	Death	Survival	Survival	Death	–	–	–	–	–	–	–	–	–	–	Survival or Death of scuticociliates (activity and shape, microscope) (scuticociliates [1]; Dosage 600 ppm): Survival; Survival or Death of scuticociliates (activity and shape, microscope) (scuticociliates [1]; Dosage 5000 ppm): Death; Survival or Death of scuticociliates (activity and shape, microscope) (scuticociliates [2]; Dosage 250 ppm): Survival; Survival or Death of scuticociliates (activity and shape, microscope) (scuticociliates [2]; Dosage 1200 ppm): Death; Survival or Death of scuticociliates (activity and shape, microscope) (scuticociliates [2]; Dosage 1400 ppm): Death
CN1CCCN=C1/C=C/c1cccs1 [Pyrantel]	Survival	–	–	–	Survival	Survival	Survival	Survival	Survival	Survival	Survival	Survival	Survival	Survival	Survival	Survival	Survival	Survival	Survival	–
COP(=O)(OC)C(O)C(Cl)(Cl)Cl (centres unmarked) [Trichlorfon]	Survival	Death	Death	Death	Death	–	Survival	–	–	–	–	–	–	–	–	–	–	–	–	Survival or Death of scuticociliates (activity and shape, microscope) (scuticociliates [1]; Dosage 200 ppm): Survival; Survival or Death of scuticociliates (activity and shape, microscope) (scuticociliates [1]; Dosage 600 ppm): Δ; Survival or Death of scuticociliates (activity and shape, microscope) (scuticociliates [2]; Dosage 10 ppm): Survival; Survival or Death of scuticociliates (activity and shape, microscope) (scuticociliates [2]; Dosage 50 ppm): Survival; Survival or Death of scuticociliates (activity and shape, microscope) (scuticociliates [2]; Dosage 100 ppm): Survival; Survival or Death of scuticociliates (activity and shape, microscope) (scuticociliates [2]; Dosage 200 ppm): Survival; Survival or Death of scuticociliates (activity and shape, microscope) (scuticociliates [2]; Dosage 600 ppm): Death; Survival or Death of scuticociliates (activity and shape, microscope) (scuticociliates [2]; Dosage 700 ppm): Death
CCCOc1ccc2nc(NC(=O)OC)[nH]c2c1 [Oxibendazole]	Survival	–	–	–	Survival	Δ	Survival	Survival	Δ	Δ	Death	Death	Death	Death	Δ	Δ	Δ	Death	Death	–
CC[C@H](C)[C@H]1O[C@]2(C=C[C@@H]1C)C[C@@H]1C[C@@H](C/C=C(\C)[C@@H](O[C@H]3C[C@H](OC)[C@@H](O[C@H]4C[C@H](OC)[C@@H](O)[C@H](C)O4)[C@H](C)O3)[C@@H](C)/C=C/C=C3\CO[C@@H]4[C@H](O)C(C)=C[C@@H](C(=O)O1)[C@]34O)O2 [Abamectin]	Death	–	–	–	–	–	Survival	Death	Death	–	–	–	–	–	Death	–	–	–	–	Survival or Death of scuticociliates (activity and shape, microscope) (scuticociliates [1]; Dosage 10 ppm): Survival; Survival or Death of scuticociliates (activity and shape, microscope) (scuticociliates [1]; Dosage 20 ppm): Survival; Survival or Death of scuticociliates (activity and shape, microscope) (scuticociliates [1]; Dosage 50 ppm): Survival; Survival or Death of scuticociliates (activity and shape, microscope) (scuticociliates [1]; Dosage 100 ppm): Survival; Survival or Death of scuticociliates (activity and shape, microscope) (scuticociliates [1]; Dosage 150 ppm): Survival; Survival or Death of scuticociliates (activity and shape, microscope) (scuticociliates [1]; Dosage 200 ppm): Δ; Survival or Death of scuticociliates (activity and shape, microscope) (scuticociliates [1]; Dosage 400 ppm): Death; Survival or Death of scuticociliates (activity and shape, microscope) (scuticociliates [2]; Dosage 800 ppm): Death; Survival or Death of scuticociliates (activity and shape, microscope) (scuticociliates [2]; Dosage 900 ppm): Death
Nc1cc(C(Cl)=C(Cl)Cl)c(S(N)(=O)=O)cc1S(N)(=O)=O [Clorsulon]	Survival	Survival	Survival	Δ	Δ	Death	Survival	Survival	Death	–	–	–	–	Death	–	–	–	–	–	Survival or Death of scuticociliates (activity and shape, microscope) (scuticociliates [2]; Dosage 50 ppm): Survival; Survival or Death of scuticociliates (activity and shape, microscope) (scuticociliates [2]; Dosage 250 ppm): Survival; Survival or Death of scuticociliates (activity and shape, microscope) (scuticociliates [2]; Dosage 1200 ppm): Survival; Survival or Death of scuticociliates (activity and shape, microscope) (scuticociliates [2]; Dosage 1400 ppm): Survival
c1ccc([C@H]2CN3CCSC3=N2)cc1 [Levamisol]	Survival	–	–	–	Survival	Survival	Survival	Survival	Survival	Survival	Survival	Survival	Survival	Survival	Survival	Survival	Survival	Survival	Survival	–
